System: 379773-124-R-J2-PDC spheroid viability
Assay: Anticancer human tumor 379773-124-R-J2-PDC patient-derived endometrial carcinoma cell line growth inhibition [POLQ]
Settings: spheroids with HUVEC and MSC; for IC50: curve of first compound; for viability, T/C: stronger effect = lower value
Summary of the method: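 Complex spheroid viability model combining PDC tumour cells with endothelial (HUVEC) and MSC stromal cells. Novobiocin, ART-558 or RP6685 were tested singly and in combination with standard and investigational anticancer drugs. Each was titrated in half-log steps from near clinical Cmax, or from 10 microM where Cmax was unknown.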

[1] = second compound 0.0316 µM, first compound 0.0316 µM
[2] = second compound 0.0316 µM, first compound 0.1 µM
[3] = second compound 0.0316 µM, first compound 0.316 µM
[4] = second compound 0.0316 µM, first compound 1 µM
[5] = second compound 0.0316 µM, first compound 3.16 µM
[6] = second compound 0.0316 µM, first compound 10 µM
[7] = second compound 0.1 µM, first compound 0.0316 µM
[8] = second compound 0.1 µM, first compound 0.1 µM
[9] = second compound 0.1 µM, first compound 0.316 µM
[10] = second compound 0.1 µM, first compound 1 µM
[11] = second compound 0.1 µM, first compound 3.16 µM
[12] = second compound 0.1 µM, first compound 10 µM
[13] = second compound 0.316 µM, first compound 0.0316 µM
[14] = second compound 0.316 µM, first compound 0.1 µM
[15] = second compound 0.316 µM, first compound 0.316 µM
[16] = second compound 0.316 µM, first compound 1 µM
[17] = second compound 0.316 µM, first compound 3.16 µM
[18] = second compound 0.316 µM, first compound 10 µM
[19] = second compound 1 µM, first compound 0.0316 µM
[20] = second compound 1 µM, first compound 0.1 µM
[21] = second compound 1 µM, first compound 0.316 µM
[22] = second compound 1 µM, first compound 1 µM
[23] = second compound 1 µM, first compound 3.16 µM
[24] = second compound 1 µM, first compound 10 µM
[25] = second compound 3.16 µM, first compound 0.0316 µM
[26] = second compound 3.16 µM, first compound 0.1 µM
[27] = second compound 3.16 µM, first compound 0.316 µM
[28] = second compound 3.16 µM, first compound 1 µM
[29] = second compound 3.16 µM, first compound 3.16 µM
[30] = second compound 3.16 µM, first compound 10 µM
[31] = second compound 10 µM, first compound 0.0316 µM
[32] = second compound 10 µM, first compound 0.1 µM
[33] = second compound 10 µM, first compound 0.316 µM
[34] = second compound 10 µM, first compound 1 µM
[35] = second compound 10 µM, first compound 3.16 µM
[36] = second compound 10 µM, first compound 10 µM
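Further: spheroids exposed to drugs for seven days before readout.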
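Wherever viability, T/C is given: percent viability relative to DMSO vehicle control taken as 100%.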

CCCS(=O)(=O)Nc1ccc(F)c(C(=O)c2c[nH]c3ncc(-c4ccc(Cl)cc4)cc23)c1F + Cc1cccc(N(C)C(=O)C2C(O)CCN2c2nc(C)cc(C(F)(F)F)c2C#N)c1
IC50 (second compound 0.0316 µM): > 10 µM | IC50 (second compound 0.1 µM): > 10 µM | IC50 (second compound 0.316 µM): > 10 µM | IC50 (second compound 1 µM): > 10 µM | IC50 (second compound 3.16 µM): > 10 µM | IC50 (second compound 10 µM): > 10 µM | viability, T/C [1]: 88.6% | viability, T/C [2]: 102% | viability, T/C [3]: 90.9% | viability, T/C [4]: 99.4% | viability, T/C [5]: 82.1% | viability, T/C [6]: 62.3% | viability, T/C [7]: 101% | viability, T/C [8]: 89.5% | viability, T/C [9]: 95.2% | viability, T/C [10]: 87.4% | viability, T/C [11]: 86.6% | viability, T/C [12]: 58.7% | viability, T/C [13]: 97.4% | viability, T/C [14]: 98.5% | viability, T/C [15]: 94.9% | viability, T/C [16]: 87.1% | viability, T/C [17]: 78.5% | viability, T/C [18]: 60.1% | viability, T/C [19]: 98.9% | viability, T/C [20]: 88.7% | viability, T/C [21]: 85.2% | viability, T/C [22]: 86.5% | viability, T/C [23]: 80.3% | viability, T/C [24]: 64.3% | viability, T/C [25]: 92% | viability, T/C [26]: 90.4% | viability, T/C [27]: 85.7% | viability, T/C [28]: 85.3% | viability, T/C [29]: 73.8% | viability, T/C [30]: 63% | viability, T/C [31]: 89.9% | viability, T/C [32]: 92.1% | viability, T/C [33]: 87.7% | viability, T/C [34]: 83.9% | viability, T/C [35]: 77.8% | viability, T/C [36]: 53.9%

C=CCn1c(=O)c2cnc(Nc3ccc(N4CCN(C)CC4)cc3)nc2n1-c1cccc(C(C)(C)O)n1 + Nc1ccc(C#CCN(C(=O)Cc2ncc(C(F)(F)F)cc2C(F)(F)F)c2ccc(F)cc2)nn1
IC50 (second compound 0.0316 µM): 0.447 µM | IC50 (second compound 0.1 µM): 0.488 µM | IC50 (second compound 0.316 µM): 0.436 µM | IC50 (second compound 1 µM): 0.447 µM | IC50 (second compound 3.16 µM): 0.499 µM | IC50 (second compound 10 µM): 0.451 µM | viability, T/C (second compound 0.0316 µM, first compound 0.00316 µM): 90.6% | viability, T/C (second compound 0.0316 µM, first compound 0.01 µM): 101% | viability, T/C [1]: 93.7% | viability, T/C [2]: 104% | viability, T/C [3]: 70.3% | viability, T/C [4]: 2.92% | viability, T/C (second compound 0.1 µM, first compound 0.00316 µM): 95.5% | viability, T/C (second compound 0.1 µM, first compound 0.01 µM): 99.2% | viability, T/C [7]: 107% | viability, T/C [8]: 111% | viability, T/C [9]: 78.1% | viability, T/C [10]: 3.57% | viability, T/C (second compound 0.316 µM, first compound 0.00316 µM): 95.7% | viability, T/C (second compound 0.316 µM, first compound 0.01 µM): 91.7% | viability, T/C [13]: 97% | viability, T/C [14]: 92.4% | viability, T/C [15]: 68.1% | viability, T/C [16]: 3.12% | viability, T/C (second compound 1 µM, first compound 0.00316 µM): 103% | viability, T/C (second compound 1 µM, first compound 0.01 µM): 103% | viability, T/C [19]: 100% | viability, T/C [20]: 97.5% | viability, T/C [21]: 69.8% | viability, T/C [22]: 3.73% | viability, T/C (second compound 3.16 µM, first compound 0.00316 µM): 113% | viability, T/C (second compound 3.16 µM, first compound 0.01 µM): 99.3% | viability, T/C [25]: 96.1% | viability, T/C [26]: 105% | viability, T/C [27]: 80.9% | viability, T/C [28]: 3.02% | viability, T/C (second compound 10 µM, first compound 0.00316 µM): 101% | viability, T/C (second compound 10 µM, first compound 0.01 µM): 88.8% | viability, T/C [31]: 92.3% | viability, T/C [32]: 88.6% | viability, T/C [33]: 71.4% | viability, T/C [34]: 2.81%

O=C(Nc1ccc(O)c(NS(=O)(=O)c2ccc(F)cc2)c1)c1ccc(-c2ccccc2)cc1 + Cc1cccc(N(C)C(=O)C2C(O)CCN2c2nc(C)cc(C(F)(F)F)c2C#N)c1
IC50 (second compound 0.0316 µM): > 10 µM | IC50 (second compound 0.1 µM): > 10 µM | IC50 (second compound 0.316 µM): > 10 µM | IC50 (second compound 1 µM): > 10 µM | IC50 (second compound 3.16 µM): > 10 µM | IC50 (second compound 10 µM): > 10 µM | viability, T/C [1]: 94.5% | viability, T/C [2]: 109% | viability, T/C [3]: 85.7% | viability, T/C [4]: 102% | viability, T/C [5]: 88.9% | viability, T/C [6]: 75.3% | viability, T/C [7]: 88.8% | viability, T/C [8]: 91.8% | viability, T/C [9]: 87.2% | viability, T/C [10]: 92.4% | viability, T/C [11]: 86.4% | viability, T/C [12]: 85.8% | viability, T/C [13]: 96.7% | viability, T/C [14]: 104% | viability, T/C [15]: 104% | viability, T/C [16]: 99.6% | viability, T/C [17]: 92.8% | viability, T/C [18]: 87% | viability, T/C [19]: 102% | viability, T/C [20]: 86.2% | viability, T/C [21]: 90.9% | viability, T/C [22]: 90.2% | viability, T/C [23]: 94.5% | viability, T/C [24]: 75.5% | viability, T/C [25]: 98.3% | viability, T/C [26]: 90.3% | viability, T/C [27]: 85.4% | viability, T/C [28]: 92.5% | viability, T/C [29]: 85.4% | viability, T/C [30]: 71% | viability, T/C [31]: 84% | viability, T/C [32]: 93.1% | viability, T/C [33]: 80.4% | viability, T/C [34]: 94% | viability, T/C [35]: 80.5% | viability, T/C [36]: 62.3%

COc1ccc([C@@H](O)c2cc(-c3ncnc4cc(N5CCOCC5)ccc34)c(F)cc2Cl)nn1 + Cc1cccc(N(C)C(=O)C2C(O)CCN2c2nc(C)cc(C(F)(F)F)c2C#N)c1
IC50 (second compound 0.0316 µM): 6.33 µM | IC50 (second compound 0.1 µM): 5.88 µM | IC50 (second compound 0.316 µM): 7 µM | IC50 (second compound 1 µM): 6.79 µM | IC50 (second compound 3.16 µM): 6.78 µM | IC50 (second compound 10 µM): 6.19 µM | viability, T/C [1]: 81.3% | viability, T/C [2]: 83.6% | viability, T/C [3]: 94.3% | viability, T/C [4]: 96.3% | viability, T/C [5]: 75% | viability, T/C [6]: 33.5% | viability, T/C [7]: 87% | viability, T/C [8]: 89.6% | viability, T/C [9]: 92% | viability, T/C [10]: 87.1% | viability, T/C [11]: 64.1% | viability, T/C [12]: 37.9% | viability, T/C [13]: 81.5% | viability, T/C [14]: 82.1% | viability, T/C [15]: 101% | viability, T/C [16]: 82.4% | viability, T/C [17]: 73% | viability, T/C [18]: 39.8% | viability, T/C [19]: 97.2% | viability, T/C [20]: 85.4% | viability, T/C [21]: 92% | viability, T/C [22]: 81.8% | viability, T/C [23]: 83.8% | viability, T/C [24]: 33.4% | viability, T/C [25]: 87.3% | viability, T/C [26]: 85.5% | viability, T/C [27]: 96.7% | viability, T/C [28]: 74.8% | viability, T/C [29]: 81.6% | viability, T/C [30]: 35% | viability, T/C [31]: 74.8% | viability, T/C [32]: 78.5% | viability, T/C [33]: 85.2% | viability, T/C [34]: 80% | viability, T/C [35]: 82.2% | viability, T/C [36]: 28.4%

— PubChem BioAssay AID1963848 (Molecular Pharmacology Branch, DTP, NCI, 2024)
